Data from patent publication US20240109893A1, “PREPARATION AND APPLICATION METHOD OF HETEROCYCLIC COMPOUNDS AS KRAS INHIBITOR” (SHANGHAI KECHOW PHARMA, INC., priority 2020, published 2024).

Test system: H358 cells
Assay: Cell activity experiment: activity test of H358 cells (MTT, 5 days)
Format: cell-based
Conditions: 5 days incubation, absorbance 492 nm
Method in brief: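 Viability was read by MTT: 4 h dye incubation, DMSO solubilisation, absorbance at 492 nm. This followed 5 days' treatment (37° C., 5% CO2) of H358 cells, pre-grown 24 h, with eight-point 3-fold dilutions up to 10000 nM final, 0.5% DMSO final, triplicate wells.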

IC50 (Homo sapiens, NCI-H358, 120 h) [µM] | IC50 [µM] | Structure (SMILES)
0.018 |  | C=C(F)C(=O)N1CCN(c2nc(OC[C@@H]3CCCN3C)nc3c(F)c(-c4cncc5cccc(Cl)c45)ccc23)C[C@@H]1CC#N [Example 159]
0.005 |  | C=CC(=O)N1CCN(c2nc(OC[C@@H]3C[C@@H](F)CN3C)nc3c(F)c(-c4cncc5cccc(Cl)c45)ccc23)C[C@@H]1CC#N [Example 160]
0.02 |  | C=C(F)C(=O)N1CCN(c2nc(OC[C@@H]3C[C@@H](F)CN3C)nc3c(F)c(-c4cncc5cccc(Cl)c45)ccc23)C[C@@H]1CC#N [Example 161]
0.002 |  | C=CC(=O)N1CCN(c2nc(OCC34CCCN3CCC4)nc3c(F)c(-c4cncc5cccc(Cl)c45)ccc23)C[C@@H]1CC#N [Example 162, (S)-2-(1-acryloyl-4-(7-(5-chloroisoquinolin-4-yl)-8-fluoro-2-((tetrahydro-1H-pyrrolizin-7a(5H)-yl)methoxy)quinazolin-4-yl)piperazin-2-yl)acetonitrile]
0.005 |  | C=C(F)C(=O)N1CCN(c2nc(OCC34CCCN3CCC4)nc3c(F)c(-c4cncc5cccc(Cl)c45)ccc23)C[C@@H]1CC#N [Example 163, (S)-2-(4-(7-(5-chloroisoquinolin-4-yl)-8-fluoro-2-((tetrahydro-1H-pyrrolizin-7a(5H)-yl)methoxy)quinazolin-4-yl)-1-(2-fluoroacryloyl)piperazin-2-yl)acetonitrile]
0.0015 |  | C=CC(=O)N1CCN(c2nc(OCC34CCCN3C[C@H](F)C4)nc3c(F)c(-c4cncc5cccc(Cl)c45)ccc23)C[C@@H]1CC#N (stereo partly drawn) [Example 164, 2-((2S)-1-acryloyl-4-(7-(5-chloroisoquinolin-4-yl)-8-fluoro-2-((((2R,7aS)-2-fluorotetrahydro-1H-pyrrolizin-7a(5H))-yl)methoxy)quinazolin-4-yl)piperazin-2-yl)acetonitrile]
0.004 |  | C=C(F)C(=O)N1CCN(c2nc(OC[C@@]34CCCN3C[C@H](F)C4)nc3c(F)c(-c4cncc5cccc(Cl)c45)ccc23)C[C@@H]1CC#N [Example 165]
0.015 |  | C=CC(=O)N1CCN(c2nc(OCC34CCCN3CCC4)nc3nc(-c4cccc5cccc(Cl)c45)ccc23)C[C@@H]1CC#N [Example 258, (S)-2-(1-acryloyl-4-(7-(8-chloronaphthalen-1-yl)-2-((tetrahydro-1H-pyrrolizin-7a(5H)-yl)methoxy)pyridino[2,3-d]pyrimidin-4-yl)piperazin-2-yl)acetonitrile]
0.031 |  | C=C(F)C(=O)N1CCN(c2nc(OCC34CCCN3CCC4)nc3nc(-c4cccc5cccc(Cl)c45)ccc23)C[C@@H]1CC#N [Example 259, (S)-2-(4-(7-(8-chloronaphthalen-1-yl)-2-((tetrahydro-1H-pyrrolizin-7a(5H)-yl)methoxy)pyridino[2,3-d]pyrimidin-4-yl)-1-(2-fluoroacryloyl)piperazin-2-yl)acetonitrile]
0.01 |  | C=CC(=O)N1CCN(c2nc(OC[C@@]34CCCN3C[C@H](F)C4)nc3nc(-c4cccc5cccc(Cl)c45)ccc23)C[C@@H]1CC#N [Example 260]
0.024 |  | C=C(F)C(=O)N1CCN(c2nc(OC[C@@]34CCCN3C[C@H](F)C4)nc3nc(-c4cccc5cccc(Cl)c45)ccc23)C[C@@H]1CC#N [Example 261]
0.003 |  | C=CC(=O)N1CCN(c2nc(OC[C@@H]3CCCN3C)nc3c(F)c(-c4cccc5ccc(F)c(Cl)c45)ccc23)C[C@@H]1CC#N [Example 359, 2-((S)-1-acryloyl-4-(7-(8-chloro-7-fluoronaphthalen-1-yl)-8-fluoro-2-(((S)-1-methylpyrrolidin-2-yl)methoxy)quinazolin-4-yl)piperazin-2-yl)acetonitrile]
0.01 |  | C=CC(=O)N1CCN(c2nc(OC[C@@H]3C[C@@H](F)CN3C)nc3c(F)c(-c4cccc5c4CCCC5)ccc23)C[C@@H]1CC#N [Example 360]
0.005 |  | C=CC(=O)N1CCN(c2nc(OC[C@@H]3C[C@@H](F)CN3C)nc3c(F)c(-c4cccc5cccc(Cl)c45)ccc23)C[C@@H]1CC#N [Example 361]
0.0046 |  | C=CC(=O)N1CCN(c2nc(OC[C@@H]3C[C@@H](F)CN3C)nc3c(F)c(-c4cccc5ccc(F)c(Cl)c45)ccc23)C[C@@H]1CC#N [Example 362]
0.005 |  | C=CC(=O)N1CCN(c2nc(OCC34CCCN3CCC4)nc3c(F)c(-c4cccc5c4CCCC5)ccc23)C[C@@H]1CC#N [Example 363, (S)-2-(1-acryloyl-4-(8-fluoro-2-((tetrahydro-1H-pyrrolizin-7a(5H)-yl)methoxy)-7-(5,6,7,8-tetrahydronaphthalene)-1-yl)quinazolin-4-ylpiperazin-2-yl)acetonitrile]
0.002 |  | C=CC(=O)N1CCN(c2nc(OCC34CCCN3CCC4)nc3c(F)c(-c4cccc5cccc(Cl)c45)ccc23)C[C@@H]1CC#N [Example 364, (S)-2-(1-acryloyl-4-(7-(8-chloronaphthalen-1-yl)-8-fluoro-2-((tetrahydro-1H-pyrrolizin-7a(5H)-yl)methoxy)quinazolin-4-yl)piperazin-2-yl)acetonitrile]
0.002 |  | C=CC(=O)N1CCN(c2nc(OCC34CCCN3CCC4)nc3c(F)c(-c4cccc5ccc(F)c(Cl)c45)ccc23)C[C@@H]1CC#N [Example 365, (S)-2-(1-acryloyl-4-(7-(8-chloro-7-fluoronaphthalen-1-yl)-8-fluoro-2-((tetrahydro-1H-pyrrolizin-7a(5H)-yl)methoxy)quinazolin-4-yl)piperazin-2-yl)acetonitrile]
0.003 |  | C=CC(=O)N1CCN(c2nc(OC[C@@]34CCCN3C[C@H](F)C4)nc3c(F)c(-c4cccc5c4CCCC5)ccc23)C[C@@H]1CC#N [Example 366]

IC50 (Homo sapiens, NCI-H358, 120 h) [µM] | IC50 [µM] | Structure (SMILES)
0.00011 |  | C=CC(=O)N1CCN(c2nc(OC[C@@]34CCCN3C[C@H](F)C4)nc3c(F)c(-c4cccc5ccc(F)c(Cl)c45)ccc23)C[C@@H]1CC#N [Example 368]
0.02 |  | C=CC(=O)N1CCC2[C@H]1CN2c1nc(OC[C@@H]2CCCN2C)nc2c(F)c(-c3cccc4c3CCCC4)ccc12 (some centres unmarked) [Example 369]
0.01 |  | C=CC(=O)N1CC[C@H]2[C@H]1CN2c1nc(OC[C@@H]2CCCN2C)nc2c(F)c(-c3cccc4cccc(Cl)c34)ccc12 [Example 370, 1-((1R,5S)-6-(7-(8-chloronaphthalen-1-yl)-8-fluoro-2-(((S)-1-methylpyrrolidin-2-yl)methoxy)quinazolin-4-yl)-2,6-diazabicyclo[3.2.0]hept-2-yl)prop-2-en-1-one]
0.006 |  | C=CC(=O)N1CCC2[C@H]1CN2c1nc(OC[C@@H]2CCCN2C)nc2c(F)c(-c3cccc4ccc(F)c(Cl)c34)ccc12 (some centres unmarked) [Example 371]
0.005 |  | C=CC(=O)N1CCC2[C@H]1CN2c1nc(OCC23CCCN2CCC3)nc2c(F)c(-c3cccc4c3CCCC4)ccc12 (some centres unmarked) [Example 372]
0.158 |  | C=CC(=O)N1CCN(c2nc(OC[C@@H]3CCCN3C)nc3cc(-c4cccc5cccc(Cl)c45)c(F)cc23)C[C@@H]1CC#N [Example 394, 2-((S)-1-acryloyl-4-(6-fluoro-7-(8-chloronaphthalen-1-yl)-2-(((S)-1-methylpyrrolidin-2-yl)methoxy)quinazolin-4-yl)piperazin-2-yl)acetonitrile]
0.015 |  | C=CC(=O)N1CCN(c2nc(OC[C@@H]3CCCN3C)nc3c(F)c(-c4cccc5c4CCCC5)c(F)cc23)C[C@@H]1CC#N [Example 429]
0.14 |  | C=CC(=O)N1CCN(c2nc(OC[C@@H]3CCCN3C)nc3c(F)c(-c4cccc5cccc(Cl)c45)c(F)cc23)C[C@@H]1CC#N [Example 430, 2-((S)-1-acryloyl-4-(6,8-difluoro-7-(8-chloronaphthalen-1-yl)-2-(((S)-1-methylpyrrolidin-2-yl)methoxy)quinazolin-4-yl)piperazin-2-yl)acetonitrile]
0.148 |  | C=CC(=O)N1CCN(c2nc(OC[C@@H]3CCCN3C)nc3c(F)c(-c4cccc5ccc(F)c(Cl)c45)c(F)cc23)C[C@@H]1CC#N [Example 431]
0.0024 |  | C=CC(=O)N1CCN(c2nc(OC[C@@H]3C[C@@H](F)CN3C)nc3c(F)c(-c4cccc5c4CCCC5)c(F)cc23)C[C@@H]1CC#N [Example 432]
0.065 |  | C=CC(=O)N1CCN(c2nc(OC[C@@H]3CCCN3C)nc3cc(-c4cccc5ccc(F)c(Cl)c45)c(Cl)cc23)C[C@@H]1CC#N [Example 466]
0.08 |  | C=CC(=O)N1CCN(c2nc(OC[C@@H]3C[C@@H](F)CN3C)nc3cc(-c4cccc5c4CCCC5)c(Cl)cc23)C[C@@H]1CC#N [Example 467]
0.075 |  | C=CC(=O)N1CCN(c2nc(OC[C@@H]3C[C@@H](F)CN3C)nc3cc(-c4cccc5cccc(Cl)c45)c(Cl)cc23)C[C@@H]1CC#N [Example 468]
0.07 |  | C=CC(=O)N1CCN(c2nc(OC[C@@H]3C[C@@H](F)CN3C)nc3cc(-c4cccc5ccc(F)c(Cl)c45)c(Cl)cc23)C[C@@H]1CC#N [Example 469]
0.05 |  | C=CC(=O)N1CCN(c2nc(OCC34CCCN3CCC4)nc3cc(-c4cccc5c4CCCC5)c(Cl)cc23)C[C@@H]1CC#N [Example 470]
0.045 |  | C=CC(=O)N1CC[C@H]2[C@H]1CN2c1nc(OCC23CCCN2CCC3)nc2cc(-c3cccc4cccc(Cl)c34)c(Cl)cc12 [Example 471, 1-((1R,5S)-6-(6-chloro-7-(8-chloronaphthalen-1-yl)-2-((tetrahydro-1H-pyrrolizin-7a(5H)-yl)methoxy)quinazolin-4-yl)-2,6-diazabicyclo[3.2.0]hept-2-yl)prop-2-en-1-one]
0.04 |  | C=CC(=O)N1CC[C@H]2[C@H]1CN2c1nc(OCC23CCCN2CCC3)nc2cc(-c3cccc4ccc(F)c(Cl)c34)c(Cl)cc12 [Example 472, 1-((1R,5S)-6-(6-chloro-7-(8-chloro-7-fluoronaphthalen-1-yl)-2-((tetrahydro-1H-pyrrolizin-7a(5H)-yl)methoxy)quinazolin-4-yl)-2,6-diazabicyclo[3.2.0]hept-2-yl)prop-2-en-1-one]
 | 0.035 | C=CC(=O)N1CC[C@H]2[C@H]1CN2c1c(Cl)c(-c2cccc3c2CCCC3)cc2nc(OC[C@@]34CCCN3C[C@H](F)C4)ncc12 [Example 473]
 | 0.03 | C=CC(=O)N1CC[C@H]2[C@H]1CN2c1nc(OC[C@@]23CCCN2C[C@H](F)C3)nc2cc(-c3cccc4cccc(Cl)c34)c(Cl)cc12 [Example 474]
